Reference: US11000033B2, “Ketone or oxime compound, and herbicide” (NISSAN CHEMICAL CORPORATION, priority 2014, dated 2021)

Columns and labels:
Format in all cases: in vivo
[1] = system: wheat; assay: Test Example 4: effect on crop by soil treatment (symbol e); details: application herbicide amount 320 g/ha
Procedure, shortened: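 Soil-treatment setup: crop and weed seeds were spot-sown into sterilized diluvial soil, then buried beneath approximately 1.5 cm of it, and the boxes were housed in a 25–30° C. greenhouse.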

[2] = system: Avena fatua; assay: Test Example 4: herbicidal effect by soil treatment (symbol I); details: application herbicide amount 320 g/ha
Procedure, shortened: (§1)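 Seeds were sown in sterilized diluvial soil, covered with about 1.5 cm of soil, and the soil surface was sprayed with a water-diluted emulsion of the compound at a predetermined rate. Plants grew in a greenhouse at 25° C. to 30° C.; effects were scored visually 3 weeks after application.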

[3] = system: Galium spurium; assay: Test Example 5: herbicidal effect by foliage application, plastic box (symbol Q); details: 320 g/ha, 3 weeks after application
Procedure, shortened: (§2)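 Emulsion formulation, diluted with water to the intended rate, was applied uniformly to leaves by small sprayer. Recipients were 14-day greenhouse-grown seedlings (25° C. to 30° C.). Assessment followed at 3 weeks.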

[4] = system: Alopecurus myosuroides; assay: Test Example 5: herbicidal effect by foliage application, plastic box (symbol J); details: 320 g/ha, 3 weeks after application
Procedure, shortened: as §2

[5] = system: Alopecurus myosuroides; assay: Test Example 4: herbicidal effect by soil treatment (symbol J); details: application herbicide amount 320 g/ha
Procedure, shortened: as §1

[6] = system: Scirpus juncoides; assay: Test Example 2: herbicidal activity, application during weed generation in submerged conditions (symbol B); details: Table 23; application herbicide amount 320 g/ha; grade 0-5 by criteria of Test Example 1
Procedure, shortened: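 Each pot contained alluvial soil under 4 cm of water with seeds of all three weeds sown together. Following growth at 25° C. to 30° C. to the one- to two-leaf stage, the floodwater received diluted emulsion at a predetermined amount; visual assessment followed at 3 weeks.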

[7] = system: corn; assay: Test Example 5: effect on crop by foliage application, plastic box (symbol c); details: 320 g/ha, 3 weeks after application
Procedure, shortened: (§3)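 A greenhouse held between 25° C. and 30° C. was used to grow plants sown spot-wise, beneath ~1.5 cm of soil, in boxes of sterilized diluvial soil.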

[8] = system: soybean; assay: Test Example 5: effect on crop by foliage application, plastic box (symbol d); details: 320 g/ha, 3 weeks after application
Procedure, shortened: as §3

[9] = system: Lolium multiflorum Lam.; assay: Test Example 5: herbicidal effect by foliage application, plastic box (symbol K); details: 320 g/ha, 3 weeks after application
Procedure, shortened: as §2

[10] = system: transplanted rice plant; assay: Test Example 1: effect on crop, application before weed generation in submerged conditions (symbol a); details: application herbicide amount 320 g/ha
Procedure, shortened: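 Rice at 2.5 leaf stage transplanted into submerged soil (4 cm depth) sown with three weed species; herbicide applied before weed emergence.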

[11] = system: Leptochloa chinensis; assay: Test Example 3: herbicidal effect by foliage application, Wagner pot (symbol D); details: application herbicide amount 320 g/ha, Table 24
Procedure, shortened: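 Seeds sown in alluvial soil kept under 0.1–0.5 cm water, greenhouse 25–30 °C; 14 d growth. Leaves treated by small sprayer with water-diluted emulsion at a predetermined rate. Effect graded by set scale, 3 weeks.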

[12] = system: Veronica persica; assay: Test Example 4: herbicidal effect by soil treatment (symbol R); details: application herbicide amount 320 g/ha
Procedure, shortened: as §1

[13] = system: wheat; assay: Test Example 5: effect on crop by foliage application, plastic box (symbol e); details: 320 g/ha, 3 weeks after application
Procedure, shortened: as §3

[14] = system: Digitaria ciliaris; assay: Test Example 5: herbicidal effect by foliage application, plastic box (symbol F); details: 320 g/ha, 3 weeks after application
Procedure, shortened: as §2

Structure (SMILES)	Effect on crop grade, e: wheat [1]	Herbicidal effect grade, I: Avena fatua [2]	Q: Galium spurium, herbicidal effect grade [3]	J: Alopecurus myosuroides, herbicidal effect grade [4]	Herbicidal effect grade, J: Alopecurus myosuroides [5]	Herbicidal effect grade, B: Scirpus juncoides [6]	c: corn, effect on crop grade [7]	d: soybean, effect on crop grade [8]	K: Lolium multiflorum Lam., herbicidal effect grade [9]	a (transplanted rice plant) effect on crop grade [10]	D (Leptochloa chinensis) herbicidal effect grade [11]	Herbicidal effect grade, R: Veronica persica [12]	e: wheat, effect on crop grade [13]	F: Digitaria ciliaris, herbicidal effect grade [14]
CON=C(CC1CC(O)=C(c2c(C)cc(-n3cc(Cl)cn3)cc2C)C1=O)C1CC1 (stereo not drawn) [9-007]	0 (Herbicidal ratio of 5% or lower (almost no effect))	3 (Herbicidal ratio of 40% or higher and lower than 70%)	1 (Herbicidal ratio of 5% or higher and lower than 20%)	5 (Herbicidal ratio of 90% or more (almost completely withered))	5 (Herbicidal ratio of 90% or more (almost completely withered))	4 (Herbicidal ratio of 70% or higher and lower than 90%)	5 (Herbicidal ratio of 90% or more (almost completely withered))	0 (Herbicidal ratio of 5% or lower (almost no effect))	5 (Herbicidal ratio of 90% or more (almost completely withered))	5 (Herbicidal ratio of 90% or more (almost completely withered))	5 (Herbicidal ratio of 90% or more (almost completely withered))	0 (Herbicidal ratio of 5% or lower (almost no effect))	4 (Herbicidal ratio of 70% or higher and lower than 90%)	5 (Herbicidal ratio of 90% or more (almost completely withered))
CC#Cc1cc(C)c(C2=C(O)CC(CC(=NOC)C3CC3)C2=O)c(C)c1 (stereo not drawn) [9-008]	5 (Herbicidal ratio of 90% or more (almost completely withered))	3 (Herbicidal ratio of 40% or higher and lower than 70%)	2 (Herbicidal ratio of 20% or higher and lower than 40%)	5 (Herbicidal ratio of 90% or more (almost completely withered))	5 (Herbicidal ratio of 90% or more (almost completely withered))	4 (Herbicidal ratio of 70% or higher and lower than 90%)	5 (Herbicidal ratio of 90% or more (almost completely withered))	3 (Herbicidal ratio of 40% or higher and lower than 70%)	5 (Herbicidal ratio of 90% or more (almost completely withered))	5 (Herbicidal ratio of 90% or more (almost completely withered))	5 (Herbicidal ratio of 90% or more (almost completely withered))	3 (Herbicidal ratio of 40% or higher and lower than 70%)	5 (Herbicidal ratio of 90% or more (almost completely withered))	5 (Herbicidal ratio of 90% or more (almost completely withered))
CC(CC1CC(O)=C(c2c(C)cc(-n3cc(Cl)cn3)cc2C)C1=O)=NOCC(F)(F)F (stereo not drawn) [9-010]	0 (Herbicidal ratio of 5% or lower (almost no effect))	4 (Herbicidal ratio of 70% or higher and lower than 90%)	3 (Herbicidal ratio of 40% or higher and lower than 70%)	5 (Herbicidal ratio of 90% or more (almost completely withered))	5 (Herbicidal ratio of 90% or more (almost completely withered))	4 (Herbicidal ratio of 70% or higher and lower than 90%)	3 (Herbicidal ratio of 40% or higher and lower than 70%)	2 (Herbicidal ratio of 20% or higher and lower than 40%)	5 (Herbicidal ratio of 90% or more (almost completely withered))	5 (Herbicidal ratio of 90% or more (almost completely withered))	5 (Herbicidal ratio of 90% or more (almost completely withered))	0 (Herbicidal ratio of 5% or lower (almost no effect))	0 (Herbicidal ratio of 5% or lower (almost no effect))	5 (Herbicidal ratio of 90% or more (almost completely withered))
